The values below come from US20250009852A1, “DEPLETING EGFR AND HER2 OVERCOMES RESISTANCE TO EGFR INHIBITORS IN COLORECTAL CANCER” (Health Research, Inc., priority 2021, published 2025).

Data set [1] concerns HER3, MET, IGF1R, SRC, AKT, ERK, MEK. As to the kind of experiment: Western blotting of whole cell lysates: other RTKs and downstream signaling proteins. It counts as cell-based, human. To be noted: HCT116, HT29 and SW620 cells; 275-277 nM, 48 h. The procedure:
(§1) To prepare whole cell lysates, cells were washed with PBS twice, mixed with 1× cell lysis buffer from Cell Signaling Technology supplemented with 2 mM PMSF and a protease inhibitor cocktail from Roche Applied Science, placed on ice for 10 min, sonicated at 0-4° C. to enhance cell lysis using a Branson Model 450 sonifier, and finally centrifuged at 13,000 g for 10 min at 4° C., and the supernatant fraction is collected as whole cell lysate. Tumor and samples were mixed with RIPA buffer (25 mM Tris-HCl, PH7.6, 150 mM NaCl, 1% Nonidet P-40, 1% sodium deoxycholate, and 0.1% SDS), which was supplemented with 2 mM PMSF, the protease inhibitor cocktail mentioned above, phosphatase inhibitor cocktail 2 and phosphatase inhibitor cocktail 3 from Sigma-Aldrich at 14.3 μl buffer per mg tissue, and homogenized in a Dounce homogenizer. The homogenates were cleared by centrifugation at 13,000 g for 15 min at 4° C.
(§2) Protein concentrations in all samples were measured using the BCA Assay Kit. For Western blotting, each sample was mixed with 4× loading dye, heated for 5 min at 95° C., and resolved by SDS-PAGE (8-12.5%). Proteins were transferred to polyvinylidene fluoride membrane, probed with specific antibodies, and detected using either Luminata Classico (Millipore) or Luminata Cresendo (Millipore). For IP, cell lysates (0.5 mg protein/sample) were incubated with a desired antibody overnight at 4° C., followed by incubation of 500 μl sample with 30 μl G-Sepharose beads (2 mg/ml) for 1 h at RT. The beads were washed three times with IP buffer, suspended in 2× SDS loading buffer, boiled for 5 min, and analyzed by Western blotting.
A general note: A western blot detects proteins with antibodies after separation by electrophoresis.

Another data set relates to HCT116 cells. Nature of the data set: MTT cell proliferation assay. It counts as cell-based, human. To be noted: 24, 48 or 72 h, PEPD^G278D 5-250 nM, cetuximab 2.75-275 nM, panitumumab 2.77-277 nM. As to the method:
(§3) Cells were grown in 96-well plates. […] The cells were then washed with PBS and mixed with dimethyl sulfoxide (150 μl per well), and cell density was determined by measuring the reduction of MTT to formazan spectroscopically at 570 nm using a Synergy 2 Multi-Mode Microplate Reader (BioTek). In experiments involving siRNA transfection, 2×10^3 HCT116 cells or 6×10^3 HT29 cells were seeded to each well of 96-well plates overnight and then transfected 25 nM siRNA (scramble siRNA, EGFR siRNA or HER2 siRNA) as described above, followed by MTT assay.
(In general: Tetrazolium assays rely on reduction of a dye to a coloured formazan, in cell work by metabolically active cells.)

A further data set deals with HT29 cells. As to the kind of experiment: MTT cell proliferation assay. Type of data set: cell-based, human. To be noted: 24, 48 or 72 h, PEPD^G278D 5-250 nM, cetuximab 2.75-275 nM, panitumumab 2.77-277 nM. As to the method: as §3
Another data set deals with SW48 cells. As to the kind of experiment: MTT cell proliferation assay. To be noted: 24, 48 or 72 h, PEPD^G278D 5-250 nM, cetuximab 2.75-275 nM, panitumumab 2.77-277 nM. Type of data set: cell-based, human. The procedure:
as §3

In data set [2] the target is T1, EGFR and HER2 (Homo sapiens, UniProt P00533).
T1 construct: Both EGFR and HER2 were expressed in HCT116, HT29, and SW48 cells; endogenous in cells; host or cells: HCT116, HT29, SW48 (SW620 lacks both)
As to the kind of experiment: Western blotting of whole cell lysates: EGFR and HER2. It counts as cell-based. To be noted: HB-EGF 20 ng/ml in medium without serum. The procedure:
as §1, §2

Data set [3] concerns EGFR and HER2. The description is as above. To be noted: HB-EGF 20 ng/ml alone, without PEPD^G278D and FBS. It counts as cell-based, human. As to the method:
as §1, §2

For another data set, the system named is EGFR. As to the kind of experiment: Immunofluorescence staining and confocal microscopy of EGFR trafficking in SW48 cells. Type of data set: cell-based, human. To be noted: chloroquine 25 μM plus PEPD^G278D 25 nM. The procedure: SW48 cells were grown in chamber slides (4×10^4 cells/well) overnight with or without subsequent treatment with PEPD^G278D (25 nM) and/or chloroquine (25 μM) for up to 6 h. The cells were then washed with ice-cold PBS, fixed with 4% paraformaldehyde for 20 min at room temperature (RT), washed again with ice-cold PBS and blocked with 1% BSA in PBS for 1 h at RT. The cells were then incubated with an EGFR antibody, a His tag antibody for detection of PEPD^G278D, and/or a LAMP1 antibody overnight at 4° C., washed with PBS, incubated with a secondary antibody conjugated to Alexa-Fluor 488 or Alexa-Fluor 647 antibody for 1 h at RT and washed again with PBS. The cells were then examined with a BZ-X700 fluorescence microscope (Keyence) with a S PL FL ELWD ADM 40xC objective. Merged images from Z-stack were organized using the ImageJ software (NIH Image).

Data set [4] deals with HER3, IGF1R, MET, SRC, AKT, ERK, MEK, NRAS, HRAS, caspase 3. As to the kind of experiment: Western blotting of tumor homogenates: other signaling proteins. Type of data set: in vivo, mouse. To be noted: HCT116 and HT29 tumors; single agent. The procedure: as §1
Protein concentrations in all samples were measured using the BCA Assay Kit. For Western blotting, each sample was mixed with 4× loading dye, heated for 5 min at 95° C., and resolved by SDS-PAGE (8-12.5%). Proteins were transferred to polyvinylidene fluoride membrane, probed with specific antibodies, and detected using either Luminata Classico (Millipore) or Luminata Cresendo (Millipore). […] The beads were washed three times with IP buffer, suspended in 2× SDS loading buffer, boiled for 5 min, and analyzed by Western blotting.
SCID mice (C.B.17 SCID) were bred by the Laboratory Animal Shared Resource at Roswell Park Comprehensive Cancer Center. […] Subcutaneous tumor volume was measured using length ×width^2÷2. Tumor volume was measured three times each week. Orthotopic tumor growth was monitored by bioluminescence weekly. Mice were given D-luciferin (150 mg/kg) by ip and anesthetized with isoflurane, and tumor burden was measured by bioluminescence using the IVIS Spectrum In Vivo Imaging System (PerkinElmer). Drug treatment was started when significant tumor growth was detected. […] The mice were closely monitored for sign of adverse effects and weighed three times each week.

Data set [5] can be described thus: Monitoring of mice for signs of adverse effects. To be noted: mouse, in vivo, ip, 35 mg/kg. Type of data set: in vivo. As to the method: SCID mice (C.B.17 SCID) were bred by the Laboratory Animal Shared Resource at Roswell Park Comprehensive Cancer Center. Male mice at 7-8 weeks of age were used. All mouse experiments were approved by the Institutional Animal Care and Use Committee at Roswell Park Comprehensive Cancer Center under protocol 1022M. We established subcutaneous tumors by inoculating 1×10^6 HCT116 cells, 4×10^6 HT29 cells, or 2×10^6 SW48 cells to the flank of each mouse in 100 μl of serum free medium. Colon patient-derived xenograft (PDX) 14650 was established from a liver metastatic lesion in a patient treated at Roswell Park Comprehensive Cancer Center. Tumor fragments (˜20 mm^3) from donor mice were implanted into the flank of each mouse subcutaneously using a trocar. […] Subcutaneous tumor volume was measured using length ×width^2÷2. Tumor volume was measured three times each week. Orthotopic tumor growth was monitored by bioluminescence weekly. Mice were given D-luciferin (150 mg/kg) by ip and anesthetized with isoflurane, and tumor burden was measured by bioluminescence using the IVIS Spectrum In Vivo Imaging System (PerkinElmer). Drug treatment was started when significant tumor growth was detected. […] The mice were closely monitored for sign of adverse effects and weighed three times each week. […]

A further data set deals with HCT116 tumors. As to the kind of experiment: Subcutaneous HCT116 tumors in SCID mice. It counts as in vivo, mouse. To be noted: sc HCT116 tumors; 5-FU 35 mg/kg ip every 3-4 days, alone or with EP and PEPD^G278D 4 mg/kg, without aderbasib (FIG. 14). As to the method: SCID mice (C.B.17 SCID) were bred by the Laboratory Animal Shared Resource at Roswell Park Comprehensive Cancer Center. Male mice at 7-8 weeks of age were used. All mouse experiments were approved by the Institutional Animal Care and Use Committee at Roswell Park Comprehensive Cancer Center under protocol 1022M. We established subcutaneous tumors by inoculating 1×10^6 HCT116 cells, 4×10^6 HT29 cells, or 2×10^6 SW48 cells to the flank of each mouse in 100 μl of serum free medium. Colon patient-derived xenograft (PDX) 14650 was established from a liver metastatic lesion in a patient treated at Roswell Park Comprehensive Cancer Center. Tumor fragments (˜20 mm^3) from donor mice were implanted into the flank of each mouse subcutaneously using a trocar. Orthotopic colon tumors in mice were established by inoculating HCT116 cells stably transfected with firefly luciferase (2×10^6 cells in 50 μl of 50% serum-free medium and 50% Matrigel) to the caecum wall of each mouse. Mice in each tumor model were randomized cage-wise into treatment groups using Research Randomizer (www.randomizer.org). Subcutaneous tumor volume was measured using length ×width^2÷2. Tumor volume was measured three times each week. Orthotopic tumor growth was monitored by bioluminescence weekly. Mice were given D-luciferin (150 mg/kg) by ip and anesthetized with isoflurane, and tumor burden was measured by bioluminescence using the IVIS Spectrum In Vivo Imaging System (PerkinElmer). Drug treatment was started when significant tumor growth was detected. EP (0.5 mg/kg) was administered to mice ip once daily. […] Aderbasib (60 mg/kg) was administered to mice by gavage once daily. 5-FU (35 mg/kg) was administered to mice ip twice weekly (Monday and Thursday). EP, PEPD^G278D and 5-FU were administered to mice in PBS. Aderbasib was first dissolved in DMSO and then diluted by PBS (final 5% DMSO by volume). Each agent was administered to mice at 0.1 ml volume per 20 g body weight. When a mouse was given multiple agents on the same day, the agents were dosed at approximately 30 min intervals. The mice were closely monitored for sign of adverse effects and weighed three times each week. Mice were sacrificed 24-48 hours after the last treatment, at which point the tumors were promptly removed, snap frozen and stored at −80° C. for later analysis. Some tumors were fixed in 10% buffered formalin, paraffin embedded, cut at 4 μm, and stained with hematoxylin and eosin (H & E) for histological analysis.

In the next data set the test system is HT29 tumors. As to the kind of experiment: Subcutaneous HT29 tumors in SCID mice. It counts as in vivo, mouse. To be noted: sc HT29 tumors; 5-FU 35 mg/kg ip every 4 days (FIG. 14). As to the method: SCID mice (C.B.17 SCID) were bred by the Laboratory Animal Shared Resource at Roswell Park Comprehensive Cancer Center. Male mice at 7-8 weeks of age were used. All mouse experiments were approved by the Institutional Animal Care and Use Committee at Roswell Park Comprehensive Cancer Center under protocol 1022M. We established subcutaneous tumors by inoculating 1×10^6 HCT116 cells, 4×10^6 HT29 cells, or 2×10^6 SW48 cells to the flank of each mouse in 100 μl of serum free medium. Colon patient-derived xenograft (PDX) 14650 was established from a liver metastatic lesion in a patient treated at Roswell Park Comprehensive Cancer Center. Tumor fragments (˜20 mm^3) from donor mice were implanted into the flank of each mouse subcutaneously using a trocar. Orthotopic colon tumors in mice were established by inoculating HCT116 cells stably transfected with firefly luciferase (2×10^6 cells in 50 μl of 50% serum-free medium and 50% Matrigel) to the caecum wall of each mouse. Mice in each tumor model were randomized cage-wise into treatment groups using Research Randomizer (www.randomizer.org). Subcutaneous tumor volume was measured using length ×width^2÷2. Tumor volume was measured three times each week. Orthotopic tumor growth was monitored by bioluminescence weekly. Mice were given D-luciferin (150 mg/kg) by ip and anesthetized with isoflurane, and tumor burden was measured by bioluminescence using the IVIS Spectrum In Vivo Imaging System (PerkinElmer). Drug treatment was started when significant tumor growth was detected. EP (0.5 mg/kg) was administered to mice ip once daily. PEPD^G278D (4 mg/kg) was administered to mice ip thrice weekly (Monday, Wednesday, Friday). Aderbasib (60 mg/kg) was administered to mice by gavage once daily. 5-FU (35 mg/kg) was administered to mice ip twice weekly (Monday and Thursday). EP, PEPD^G278D and 5-FU were administered to mice in PBS. Aderbasib was first dissolved in DMSO and then diluted by PBS (final 5% DMSO by volume). […] The mice were closely monitored for sign of adverse effects and weighed three times each week. […]

As to panitumumab [reference compound], in data set [1], the “effect on MET and ERK” value was “neither cetuximab nor panitumumab had any effect”. Further, the “cell growth measured by MTT assay” value in the data set on HCT116 cells is “neither agent is active”; in the data set on HT29 cells, “neither agent is active”; in the data set on SW48 cells, “inhibited the growth of SW48 cells in a time- and concentration-dependent manner”.

Take “HB-EGF: recombinant human HB-EGF, a high affinity EGFR ligand [reference compound]”: the “effect on EGFR depletion induced by PEPD^G278D” value with EGFR and HER2 [2] is reported as “mimicked the effect of serum”. For the same compound, the “expression of EGFR or HER2” value in the data set on EGFR and HER2 [3] is listed as “did not modulate the expression”.

Take `CCN(CC)CCCC(C)Nc1ccnc2cc(Cl)ccc12` (centres unmarked) [chloroquine, reference compound]: the “EGFR degradation induced by PEPD^G278D” value in the data set with EGFR was “blocked EGFR degradation”.

Turning to enoxaparin [EP], the “expression or phosphorylation of the proteins analyzed in tumors” value in data set [4] is reported as “neither EP nor aderbasib had any effect”.

For `O=c1[nH]cc(F)c(=O)[nH]1` [5-FU, fluorouracil], the “toxicity in a dose-finding experiment” value in data set [5] was “not toxic”. Moreover, the tumor growth entry with HCT116 tumors and in the data set on HT29 tumors was “ineffective” throughout.
